Assay results taken from patent publication US20080287430A1, “Furan Compounds Useful As Ep1 Receptor Antagonists” (priority 2005, published 2008).
Where a name gives a salt, the structure may show the parent alone.

target: T1, human EP1 receptor (Homo sapiens, UniProt P34995); experiment: human EP1 calcium mobilisation assay; assay type: cell-based; settings: human EP1, PGE2-induced calcium mobilisation in CHO-K1 cells; free bases or sodium salts; averages of a number of experiments; read-out: functional pKi value (converted)
T1 construct: expressed in transfected cells; host or cells: CHO-K1
T1 sequence (P34995 1-402): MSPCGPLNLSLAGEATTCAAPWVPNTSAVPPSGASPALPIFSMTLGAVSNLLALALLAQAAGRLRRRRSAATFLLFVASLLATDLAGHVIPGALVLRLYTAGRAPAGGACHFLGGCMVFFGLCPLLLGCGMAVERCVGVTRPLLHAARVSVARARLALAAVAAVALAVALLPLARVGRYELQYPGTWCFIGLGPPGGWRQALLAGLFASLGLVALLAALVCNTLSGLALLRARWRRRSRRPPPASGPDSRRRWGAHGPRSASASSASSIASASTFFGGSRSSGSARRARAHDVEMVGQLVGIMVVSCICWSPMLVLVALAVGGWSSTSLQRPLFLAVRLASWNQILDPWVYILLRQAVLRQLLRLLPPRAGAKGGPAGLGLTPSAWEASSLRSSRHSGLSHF
In short: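 CHO-K1 cells stably expressing human EP1, loaded with Fluo-4 after 24 h at 37° C; compounds added before PGE2 challenge. Inhibition of PGE2-induced [Ca2+]i rise read by FLIPR fluorescence; pIC50 from curve fitting of half-maximal inhibition.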

Compound | Ki [µM]
CCCOc1ccc(Cl)cc1Cc1ccc(C(=O)O)o1 [Example 1, Sodium 5-{[5-chloro-2-(propyloxy)phenyl]methyl}-2-furancarboxylate] | < 1
O=C(Nc1c(F)cccc1F)c1ccc(Cc2cc(Cl)ccc2OCc2ccc(F)c(F)c2)o1 [Example 86, 5-[(5-Chloro-2-{[(3,4-difluorophenyl)methyl]oxy}-phenyl)methyl]-N-(2,6-difluorophenyl)-2-furancarboxamide] | < 1
O=C(Nc1c(F)cccc1F)c1ccc(Cc2cc(Cl)ccc2OCC2CCCCC2)o1 [Example 96, 5-({5-Chloro-2-[(cyclohexylmethyl)oxy]-phenyl}methyl)-N-(2,6-difluorophenyl)-2-furancarboxamide] | < 1
O=C(Nc1c(F)cccc1F)c1ccc(Cc2cc(Cl)ccc2OCc2ccc(F)cc2)o1 [Example 82, 5-[(5-Chloro-2-{[(4-fluorophenyl)methyl]oxy}-phenyl)methyl]-N-(2,6-difluorophenyl)-2-furancarboxamide] | < 1
NC(=O)c1ccc(Cc2cc(Cl)ccc2OCc2ccccc2)o1 [Example 78, 5-({5-Chloro-2-[(phenylmethyl)oxy]-phenyl}methyl)-2-furancarboxamide] | < 1
CC(C)(C)NC(=O)c1ccc(Cc2cc(Cl)ccc2OCc2ccccc2)o1 [Example 51, 5-({5-Chloro-2-[(phenylmethyl)oxy]phenyl}methyl)-N-(1,1-dimethylethyl)-2-furancarboxamide] | < 1
O=C(Nc1c(F)cccc1F)c1ccc(Cc2cc(Cl)ccc2OCc2ccccc2)o1 [Example 79, 5-({5-Chloro-2-[(phenylmethyl)oxy]-phenyl}methyl)-N-(2,6-difluorophenyl)-2-furancarboxamide] | ≤ 0.01
O=C(Nc1c(F)cccc1F)c1ccc(Cc2cc(Cl)ccc2OCC2CC2)o1 [Example 94, 5-({5-Chloro-2-[(cyclopropylmethyl)oxy]-phenyl}methyl)-N-(2,6-difluorophenyl)-2-furancarboxamide] | < 1
O=C(O)c1ccc(Cc2cc(Cl)ccc2OCCc2ccccc2)o1 [Example 12, Sodium 5-({5-chloro-2-[(2-phenylethyl)oxy]phenyl}methyl)-2-furancarboxylate] | < 1
CC(C)COc1ccc(Cl)cc1Cc1ccc(C(=O)NCc2ccc(Cl)cc2)o1 [Example 41, 5-({5-Chloro-2-[(2-methylpropyl)oxy]phenyl}methyl)-N-[(4-chlorophenyl)methyl]-2-furancarboxamide] | < 1
COc1ccc2[nH]c(-c3ccc(Cc4cc(Cl)ccc4OCc4ccccc4)o3)nc2c1 [Example 100, 2-[5-({5-Chloro-2-[(phenylmethyl)oxy]phenyl}methyl)-2-furanyl]-5-(methyloxy)-1H-benzimidazole] | < 1
CC(C)COc1ccc(Cl)cc1Cc1ccc(C(=O)NCc2ccccn2)o1 [Example 58, 5-({5-Chloro-2-[(2-methylpropyl)oxy]-phenyl}methyl)-N-(2-pyridinylmethyl)-2-furancarboxamide] | < 1
CC(C)COc1ccc(Cl)cc1Cc1ccc(C(=O)NCc2ccc(C(N)=O)cc2)o1 [Example 46, N-{[4-(Aminocarbonyl)-phenyl]methyl}-5-({5-chloro-2-[(2-methylpropyl)oxy]phenyl}methyl)-2-furancarboxamide] | < 1
O=C(O)c1ccc(Cc2cc(Cl)ccc2OCc2ccncc2Cl)o1 [Example 17, Sodium 5-[(5-chloro-2-{[(3-chloro-4-pyridinyl)methyl]oxy}phenyl)methyl]-2-furancarboxylate] | ≤ 0.01
O=C(Nc1c(F)cccc1F)c1ccc(Cc2cc(Cl)ccc2OC2CCCC2)o1 [Example 95, 5-{[5-Chloro-2-(cyclopentyloxy)phenyl]-methyl}-N-(2,6-difluorophenyl)-2-furancarboxamide] | < 1
Cc1cccc(Cl)c1NC(=O)c1ccc(Cc2cc(Cl)ccc2OCc2ccccc2)o1 [Example 74, N-(2-Chloro-6-methylphenyl)-5-({5-chloro-2-[(phenylmethyl)oxy]-phenyl}methyl)-2-furancarboxamide] | < 1
O=C(NCc1ccccn1)c1ccc(Cc2cc(Cl)ccc2OCc2ccccc2)o1 [Example 53, 5-({5-Chloro-2-[(phenylmethyl)oxy]phenyl}methyl)-N-(2-pyridinylmethyl)-2-furancarboxamide] | ≤ 0.01
CC(C)Oc1ccc(Cl)cc1Cc1ccc(C(=O)O)o1 [Example 2, Sodium 5-({5-chloro-2-[(1-methylethyl)oxy]phenyl}methyl)-2-furancarboxylate] | < 1
O=C(Nc1c(F)cccc1F)c1ccc(Cc2cc(Cl)ccc2OCc2ccccn2)o1 [Example 91, 5-({5-Chloro-2-[(2-pyridinylmethyl)oxy]phenyl}methyl)-N-(2,6-difluorophenyl)-2-furancarboxamide] | < 1
O=C(Nc1c(F)cccc1F)c1ccc(Cc2cc(Cl)ccc2OCc2c(F)cc(F)cc2F)o1 [Example 83, 5-[(5-Chloro-2-{[(2,4,6-trifluorophenyl)methyl]oxy}-phenyl)methyl]-N-(2,6-difluorophenyl)-2-furancarboxamide] | < 1
CC(C)COc1ccc(Cl)cc1Cc1ccc(C(=O)Nc2ccccc2)o1 [Example 34, 5-({5-Chloro-2-[(2-methylpropyl)oxy]phenyl}methyl)-N-phenyl-2-furancarboxamide] | < 1
Cc1cc(C(=O)O)oc1Cc1cc(Cl)ccc1OCC(C)C [Example 14, Sodium 5-({5-chloro-2-[(2-methylpropyl)oxy]phenyl}methyl)-4-methyl-2-furancarboxylate] | ≤ 0.01
CC(C)COc1ccc(Cl)cc1Cc1ccc(C(=O)NCc2c(F)cccc2F)o1 [Example 43, 5-({5-Chloro-2-[(2-methylpropyl)oxy]phenyl}methyl)-N-[(2,6-difluorophenyl)methyl]-2-furancarboxamide] | < 1

Next, values leading:

Ki [µM] | Compound
< 1 | Cc1ccc2[nH]c(-c3ccc(Cc4cc(Cl)ccc4OCC(C)C)o3)nc2c1 [Example 125, 2-[5-({5-Chloro-2-[(2-methylpropyl)oxy]phenyl}-methyl)-2-furanyl]-5-methyl-1H-benzimidazole]
< 1 | CN(C)Cc1ccc2nc(-c3ccc(Cc4cc(Cl)ccc4OCc4ccccc4)o3)[nH]c2c1 [Example 138, ({2-[5-({5-Chloro-2-[(phenylmethyl)oxy]phenyl}methyl)-2-furanyl]-1H-benzimidazol-5-yl}methyl)dimethylamine dihydrochloride]
< 1 | CN1CCN(Cc2cccc3nc(-c4ccc(Cc5cc(Cl)ccc5OCc5ccccc5)o4)[nH]c23)CC1 [Example 160, 2-[5-({5-Chloro-2-[(phenylmethyl)oxy]-phenyl}methyl)-2-furanyl]-4-[(4-methyl-1-piperazinyl)methyl]-1H-benzimidazolehydrochloride]
> 1 | CC(C)COc1ccc(Cl)cc1Cc1ccc(-c2nc3cc(Br)cnc3[nH]2)o1 [Example 135, 6-Bromo-2-[5-({5-chloro-2-[(2-methylpropyl)oxy]phenyl}methyl)-2-furanyl]-1H-imidazo[4,5-b]pyridine hydrochloride]
< 1 | CC(C)COc1ccc(Cl)cc1Cc1ccc(-c2nc3cc(F)ccc3[nH]2)o1 [Example 122, 2-[5-({5-Chloro-2-[(2-methyipropyl)oxy]phenyl}methyl)-2-furanyl]-5-fluoro-1H-benzimidazole]
< 1 | Clc1ccc(OCc2ccccc2)c(Cc2ccc(-c3nc4ncccc4[nH]3)o2)c1 [Example 121, 2-[5-({5-Chloro-2-[(phenylmethyl)oxy]-phenyl}methyl)-2-furanyl]-1H-imidazo[4,5-b]pyridine]
< 1 | CC(C)COc1ccc(Cl)cc1Cc1ccc(-c2nc3ncccc3[nH]2)o1 [Example 116, 2-[5-({5-Chloro-2-[(2-methylpropyl)oxy]phenyl}-methyl)-2-furanyl]-1H-imidazo[4,5-b]pyridine]
< 1 | CC(C)COc1ccc(Cl)cc1Cc1ccc(-c2nc3cc(CCN4CCCC4)ccc3[nH]2)o1 [Example 161, 2-[5-({5-Chloro-2-[(2-methylpropyl)oxy]-phenyl}methyl)-2-furanyl]-5-[2-(1-pyrrolidinyl)ethyl]-1H-benzimidazoledihydrochloride]
< 1 | CN1CCN(c2ccc3[nH]c(-c4ccc(Cc5cc(Cl)ccc5OCc5ccccc5)o4)nc3c2)CC1 [Example 103, 2-[5-({5-Chloro-2-[(phenylmethyl)oxy]phenyl}methyl)-2-furanyl]-5-(4-methyl-1-piperazinyl)-1H-benzimidazolehydrochloride]
> 1 | CC(C)COc1ccc(Cl)cc1Cc1ccc(-c2nc3ccc(Br)cc3[nH]2)o1 [Example 110, 5-Bromo-2-[5-({5-chloro-2-[(2-methylpropyl)oxy]-phenyl}methyl)-2-furanyl]-1H-benzimidazolehydrochloride]
≤ 0.01 | CC(C)COc1ccc(Cl)cc1Cc1ccc(-c2ncc[nH]2)o1 [Example 167, 2-[5-({5-Chloro-2-[(2-methylpropyl)oxy]phenyl}methyl)-2-furanyl]-1H-imidazole]
< 1 | Fc1cccc2nc(-c3ccc(Cc4cc(Cl)ccc4OCc4ccccc4)o3)[nH]c12 [Example 131, 2-[5-({5-Chloro-2-[(phenylmethyl)oxy]-phenyl}methyl)-2-furanyl]-4-fluoro-1H-benzimidazole]
